“And” between values parts separate entries of the source, which are not always exact repeats. Identical values can stand only once. Like-named read-outs stand apart in the source and are kept apart here.
Key:
zebrafish larvae = assay type: in vivo; conditions: 5 mM
Source text: In an effort to determine how pharmacological inhibition of KCC2 affects zebrafish behaviors, 7 days post-fertilization (dpf) zebrafish larvae can be treated with two analogs of the selective KCC2 inhibitor, VU0463271 and VU0240551, and their behavioral responses in a battery of behavioral assays can be assessed. These behavioral assays can include a series of visual and acoustic stimuli presented to larval zebrafish in various contexts and combinations to elicit robust and reproducible patterns of activity. For example, behavioral assays can include two acoustic-stimulus-response (ASR1 and ASR2) assays, six visual-stimulus-response (VSR1-VSR6) assays, and three assays that combine acoustic and visual stimulus responses (AVSR1-AVSR3). Together, such a battery of behavioral assays use six stimuli, including red light (600 nm), blue light (420 nm), violet light (405 nm), green light (525 nm), low-intensity sound (60 dB) and high-intensity sound (70 dB). Behavioral responses of the larval zebrafish can be measured by a motion index (MI) that quantifies the motor activity of at least about 8 zebrafish larvae in each well of a 96-well plate.
Referring to FIGS. 1A-1B, zebrafish behavioral profiles can include a battery of individual behavioral assays labeled ASR1, AVSR1, ASR2, VSR1, VSR2, VSR3, VSR4, AVSR2, VSR5, AVSR3, and VSR6, as described herein. These behavioral assays can be combined to form a Motion Index (MI), which is a quantification of the motor activity of at least about 8 zebrafish larvae in each well of a 96-well plate. As shown in the representative images of FIGS. 1A-1B, zebrafish larvae were treated with DMSO (control), VU0463271 (FIG. 1A), or pentylentetrazol or PTZ (FIG. 1B).
Treatment with increasing doses of VU0463271 induced a unique and dose-dependent profile of behavioral responses, detectable at 2.5 μM and 5 μM. […] This relatively low concentration of VU0463271 elicited a reproducible behavioral profile with altered sensitivity of the fish larvae to specific combinations of stimuli. […] The increased MI in the AVSR1 and AVSR3 assays due to VU0463271 treatment reflects a seizure-like hyperexcitability in the larval fish.
Additionally, seizures have been induced in 7 dpf zebrafish larvae using pentylentetrazol (PTZ) treatment, and motor and electroencephalographic (EEG) responses were consistent with seizure phenotypes.

[1] = system: PTZ-induced behavior in zebrafish larvae; assay: Suppression of PTZ-induced behavior in zebrafish larvae; assay type: in vivo; conditions: pre-treatment with 6 concentrations, then 5 mM PTZ
Experimental: Differences between behavioral profiles of larval zebrafish treated with KCC2 inhibitors and larval zebrafish treated with PTZ were investigated by evaluating the ability of traditional anti-seizure drugs to reverse their effects. Five drugs in at least six concentrations (by allocating 12 wells per concentration) were tested. These drugs included a benzodiazepine anxiolytic (diazepam), two AEDs that increase GABA levels in the synapse (tiagabine and valproate), a sodium channel blocker (phenytoin) and a synthetic neurosteroid GABAA positive allosteric modulator (PAM, ganaxolone).

[2] = system: cultured rat hippocampal neurons; assay: Gramicidin perforated patch clamp in cultured hippocampal neurons; assay type: cell-based
Experimental: Referring to FIG. 9, representative IV curves were generated (current-voltage curves) to characterise the intrinsic excitability of TT0023831 and TT0042607 in gramicidin perforated patch clamp studies, and to investigate whether the effects of the three hit compounds identified in the above-described suppressor screens translate to rodent models. The effects of these compounds were evaluated in cultured rat hippocampal neurons using the gramicidin perforated patch technique. The GABAA agonist, muscimol (1 μM), was used to measure EGABA values under basal conditions (FIG. 9). Perfusion of 30 μM TT0011235 potentiated GABAA-mediated currents, both muscimol-activated and endogenous post-synaptic potentials, and shifted the EGABA values (FIG. 9 and Appendix B). […] Treatment with 30 μM TT0042607 slowed the upstroke and repolarization, reduced the input resistant and thus, and reduced the number of open channels.

[3] = system: VU0240551-induced phenotype (KCC2 inhibition) in zebrafish larvae
[4] = system: VU0463271-induced phenotype (KCC2 inhibition) in zebrafish larvae; assay: animal or person; conditions: for suppression score dose response compared with other compounds as suppressor of the hyperexcitability phenotype: zebrafish, FIG. 8 / FIG. 10
Experimental: To quantify the ability of the same drugs to reverse (or “rescue”) the phenotype caused by either 2.5 μM VU0463271 or 5 μM VU0240551, a rescue score between 0 (no rescue) and 1 (maximal theoretical rescue) was calculated (FIG. 2C). A rescue score incorporates and quantifies the degree of phenotypic reversal and the level of sedation in each concentration tested (see Materials and Methods below).
A diverse collection of 37,000 uncharacterized small molecules were used in a suppressor screen against either 2.5 μM VU0463271 (27,000 compounds) or 5 μM VU0240551 (10,000 compounds), along with 3,700 control wells treated with DMSO alone and 3,700 control wells treated with the KCC2 inhibitor. Each well of a 96-well plate containing at least about 8 zebrafish larvae was treated with a library compound or DMSO followed by treatment with the KCC2 inhibitor. Behavioral profiles pre- and post-treatment with the KCC2 inhibitor were evaluated using the behavioral assay battery described herein, and a detailed quantitative readout of about 15,000 time points was generated for each well. These behavioral profiles were used to calculate a screening score for each library compound, which incorporates and quantifies the rescue score and sedation index (see Materials and Methods).
In some cases, small molecules that alter the KCC2 inhibition phenotype may reverse the behavioral phenotype back to the normal, but could also elicit a new undesired phenotype, which is different from a normal behavior. To discriminate between these possibilities, vector algebra was used to compare each behavioral profile to the behavioral profile of DMSO-treated larvae and defined a value for the phenotypic distance from DMSO. The screen score of each compound was then plotted against its averaged phenotypic distance from DMSO (FIG. 3A) and MI (FIG. 3B) to filter out compounds that elicit a profile that is very different from the control one and compounds that reduce overall activity, respectively.
The reproducibility of the effects and the active concentration ranges of the 30 hits selected, as described above, were determined. Their rescue efficacies were retested in at least six concentrations and their rescue scores were also recalculated.
TT0023831 and six analogs were tested at a range of doses from 2.5-320 uM in a behavioral assay designed to assess the ability of compounds to suppress the effects of KCC2 inhibition. The graphs of FIG. 11 indicate the degree of suppression of the KCC2-inhibited phenotype, where a score of 1 represents complete restoration of KCC2-treated zebrafish to normal. […] Table 4 summarizes the estimated EC50 values and peak effect values for each compound.
A large number of fertilized zebrafish eggs (up to 20,000 embryos per day) were collected from group matings of wild type Ekkwill/Singapore zebrafish. Embryos were raised in hatching jars at 28° C. on a 14/10 hour light/dark cycle until 3 days post fertilization (dpf), then transferred to an incubator under the same conditions until 7 dpf. Groups of eight larvae (7 dpf) were distributed into the wells of a clear flat bottom square well 96-well plates filled with E3 medium (300 μl). Larvae were then incubated at 25° C. on the bench top for one-hour chemical treatment and subsequent experiments.
A library containing 37,000 uncharacterized small molecules was purchased from Life Chemicals and dissolved in DMSO at a stock concentration of 10 mM.

mouse 6 Hz 44 mA model = assay: Mouse 6 Hz 44 mA model of epilepsy; assay type: in vivo; conditions: animals protected from seizures / number tested
Experimental: (§1) TT0023831 and TT0042607 were tested in mammalian models of epilepsy. The two compounds were tested in the mouse 6 Hz 44 mA model and the mouse maximal electroshock (MES) model. A range of doses was examined, and results were reported as the number of animals protected from seizures out of the number tested (Table 5).

[5] = system: mouse maximal electroshock (MES) model; assay: Mouse maximal electroshock (MES) model; assay type: in vivo; conditions: animals protected from seizures / number tested
Experimental: as §1

Nav1.1 = Nav1.1 (Homo sapiens, UniProt P35498)
Nav1.2 = Nav1.2 (Homo sapiens, UniProt Q99250)
Nav1.6 = Nav1.6 (Homo sapiens, UniProt Q9UQD0)
[6] = 10-point CRC, TT002381 to a maximum of 100 μM

Nav1.6, sequence (Q9UQD0 whole entry): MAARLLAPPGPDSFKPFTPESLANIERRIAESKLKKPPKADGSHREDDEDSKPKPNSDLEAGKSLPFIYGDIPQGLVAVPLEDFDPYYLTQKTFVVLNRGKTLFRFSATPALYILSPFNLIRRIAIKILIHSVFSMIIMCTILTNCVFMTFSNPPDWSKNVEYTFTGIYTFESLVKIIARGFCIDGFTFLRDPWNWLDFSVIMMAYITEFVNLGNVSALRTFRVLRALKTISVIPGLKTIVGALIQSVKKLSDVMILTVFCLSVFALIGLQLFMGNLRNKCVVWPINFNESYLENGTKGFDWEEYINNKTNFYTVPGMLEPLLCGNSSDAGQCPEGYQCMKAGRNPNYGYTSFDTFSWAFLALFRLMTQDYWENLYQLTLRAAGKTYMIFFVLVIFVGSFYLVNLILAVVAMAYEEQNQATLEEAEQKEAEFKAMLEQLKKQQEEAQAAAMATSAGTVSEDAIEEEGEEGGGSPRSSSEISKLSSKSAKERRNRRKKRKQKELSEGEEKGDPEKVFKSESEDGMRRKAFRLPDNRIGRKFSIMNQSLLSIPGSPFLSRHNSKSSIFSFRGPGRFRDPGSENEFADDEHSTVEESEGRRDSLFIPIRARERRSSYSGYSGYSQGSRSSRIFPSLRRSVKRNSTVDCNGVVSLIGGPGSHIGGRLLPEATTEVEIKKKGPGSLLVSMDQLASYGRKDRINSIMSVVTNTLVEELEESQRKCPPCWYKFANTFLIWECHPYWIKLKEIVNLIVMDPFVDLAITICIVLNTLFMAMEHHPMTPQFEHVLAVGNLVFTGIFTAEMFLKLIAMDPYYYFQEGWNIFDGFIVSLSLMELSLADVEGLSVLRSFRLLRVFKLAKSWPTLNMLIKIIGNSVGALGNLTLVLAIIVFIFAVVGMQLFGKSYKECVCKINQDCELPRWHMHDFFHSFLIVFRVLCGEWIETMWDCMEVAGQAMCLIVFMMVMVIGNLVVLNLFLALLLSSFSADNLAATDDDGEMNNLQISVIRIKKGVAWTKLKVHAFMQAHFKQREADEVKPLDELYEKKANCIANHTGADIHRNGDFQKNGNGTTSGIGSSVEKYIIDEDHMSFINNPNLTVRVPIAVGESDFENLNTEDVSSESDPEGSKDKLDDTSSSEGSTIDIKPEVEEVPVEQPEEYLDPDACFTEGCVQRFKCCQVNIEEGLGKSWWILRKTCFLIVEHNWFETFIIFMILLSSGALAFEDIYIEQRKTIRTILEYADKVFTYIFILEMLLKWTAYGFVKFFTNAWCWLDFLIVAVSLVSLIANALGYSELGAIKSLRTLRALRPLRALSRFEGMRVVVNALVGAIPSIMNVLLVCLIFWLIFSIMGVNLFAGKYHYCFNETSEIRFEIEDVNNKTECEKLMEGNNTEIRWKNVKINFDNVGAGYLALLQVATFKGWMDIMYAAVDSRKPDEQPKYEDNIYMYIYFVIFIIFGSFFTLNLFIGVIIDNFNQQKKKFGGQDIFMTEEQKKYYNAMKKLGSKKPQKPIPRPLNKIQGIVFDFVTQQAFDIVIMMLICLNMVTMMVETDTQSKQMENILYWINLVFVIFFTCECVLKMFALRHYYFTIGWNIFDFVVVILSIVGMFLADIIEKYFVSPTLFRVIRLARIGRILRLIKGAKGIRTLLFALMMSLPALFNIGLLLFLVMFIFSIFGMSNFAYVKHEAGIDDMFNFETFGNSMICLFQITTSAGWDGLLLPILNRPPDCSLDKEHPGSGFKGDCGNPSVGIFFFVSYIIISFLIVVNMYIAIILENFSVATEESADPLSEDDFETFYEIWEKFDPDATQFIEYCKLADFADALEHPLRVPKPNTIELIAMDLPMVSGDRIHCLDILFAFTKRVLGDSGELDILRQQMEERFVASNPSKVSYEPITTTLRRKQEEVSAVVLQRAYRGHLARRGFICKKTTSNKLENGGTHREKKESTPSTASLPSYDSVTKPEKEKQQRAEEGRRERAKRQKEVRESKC
Nav1.2, sequence (Q99250 whole entry): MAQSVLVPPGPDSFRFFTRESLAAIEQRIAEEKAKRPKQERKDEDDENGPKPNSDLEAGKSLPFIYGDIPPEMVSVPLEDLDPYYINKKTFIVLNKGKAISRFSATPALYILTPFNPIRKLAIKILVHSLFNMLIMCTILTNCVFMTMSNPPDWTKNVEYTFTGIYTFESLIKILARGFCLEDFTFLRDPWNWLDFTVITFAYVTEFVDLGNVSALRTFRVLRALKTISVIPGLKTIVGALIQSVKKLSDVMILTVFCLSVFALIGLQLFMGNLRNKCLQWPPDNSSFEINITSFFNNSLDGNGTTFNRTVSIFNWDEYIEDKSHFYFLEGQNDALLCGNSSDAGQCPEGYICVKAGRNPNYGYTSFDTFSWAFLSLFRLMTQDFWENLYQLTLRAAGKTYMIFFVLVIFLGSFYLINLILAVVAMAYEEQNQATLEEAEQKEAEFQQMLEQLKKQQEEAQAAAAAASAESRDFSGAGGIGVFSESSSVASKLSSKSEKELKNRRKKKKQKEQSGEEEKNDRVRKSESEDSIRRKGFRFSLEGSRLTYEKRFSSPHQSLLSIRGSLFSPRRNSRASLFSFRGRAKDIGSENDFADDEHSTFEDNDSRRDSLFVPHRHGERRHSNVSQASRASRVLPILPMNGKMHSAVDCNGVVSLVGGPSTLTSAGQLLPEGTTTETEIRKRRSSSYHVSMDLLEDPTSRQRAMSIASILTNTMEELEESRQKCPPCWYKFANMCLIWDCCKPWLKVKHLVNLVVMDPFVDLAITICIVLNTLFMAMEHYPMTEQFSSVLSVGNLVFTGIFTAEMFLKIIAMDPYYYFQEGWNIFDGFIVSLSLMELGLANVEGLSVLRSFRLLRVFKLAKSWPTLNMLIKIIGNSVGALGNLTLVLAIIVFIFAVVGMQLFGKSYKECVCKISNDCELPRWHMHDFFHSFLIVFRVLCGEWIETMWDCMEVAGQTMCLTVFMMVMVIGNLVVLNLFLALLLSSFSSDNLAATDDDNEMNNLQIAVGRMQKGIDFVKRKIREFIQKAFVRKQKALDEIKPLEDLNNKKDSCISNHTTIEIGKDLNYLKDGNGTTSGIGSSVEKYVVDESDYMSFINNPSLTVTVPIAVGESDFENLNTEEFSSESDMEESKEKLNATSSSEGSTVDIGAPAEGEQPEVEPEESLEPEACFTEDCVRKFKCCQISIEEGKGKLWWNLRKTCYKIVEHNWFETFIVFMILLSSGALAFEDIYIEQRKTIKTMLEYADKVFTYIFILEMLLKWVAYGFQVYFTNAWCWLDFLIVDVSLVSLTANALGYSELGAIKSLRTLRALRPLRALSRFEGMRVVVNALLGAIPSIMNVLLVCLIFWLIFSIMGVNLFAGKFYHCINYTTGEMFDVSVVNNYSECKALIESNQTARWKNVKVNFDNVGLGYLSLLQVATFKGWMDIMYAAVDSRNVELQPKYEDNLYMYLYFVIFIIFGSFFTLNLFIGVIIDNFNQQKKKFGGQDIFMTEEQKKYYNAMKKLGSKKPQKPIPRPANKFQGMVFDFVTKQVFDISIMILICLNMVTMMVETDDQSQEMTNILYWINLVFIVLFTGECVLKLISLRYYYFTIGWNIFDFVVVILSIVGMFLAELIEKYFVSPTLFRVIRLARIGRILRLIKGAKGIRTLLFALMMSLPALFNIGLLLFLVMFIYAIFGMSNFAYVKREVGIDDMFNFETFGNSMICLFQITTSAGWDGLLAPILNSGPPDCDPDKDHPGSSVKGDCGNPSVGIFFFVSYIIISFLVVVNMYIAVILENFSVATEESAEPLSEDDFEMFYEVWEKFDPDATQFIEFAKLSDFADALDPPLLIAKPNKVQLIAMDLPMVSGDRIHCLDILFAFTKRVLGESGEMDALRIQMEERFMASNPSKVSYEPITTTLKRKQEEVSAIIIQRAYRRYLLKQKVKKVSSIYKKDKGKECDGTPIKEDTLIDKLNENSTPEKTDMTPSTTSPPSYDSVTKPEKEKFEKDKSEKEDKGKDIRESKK

Structure (SMILES) | suppression of PTZ-induced hyperactivity in response to the different stimuli [1] | suppression score dose response compared with other compounds as suppressor of the hyperexcitability phenotype [4] | Rescued (6 Hz model) (mouse 6 Hz 44 mA model; 100 mg/kg) | Rescued (MES model) ([5]; 10 mg/kg) | Rescued (MES model) ([5]; 30 mg/kg) | Rescued (MES model) ([5]; 100 mg/kg) | effect on GABAA-mediated currents [2] | firing rates of the cultured neurons [2] | spike initiation [2] | input resistant ([2]; 30 μM) | number of open channels (open at rest) ([2]; 30 μM) | inhibition of Nav1.1 (Nav1.1; [6]) | inhibition of Nav1.2 (Nav1.2; [6]) | inhibition of Nav1.6 (Nav1.6; [6]) | further results
C1CCc2nnnn2CC1 [PTZ, pentylentetrazol] | – | – | – | – | – | – | – | – | – | – | – | – | – | – | activity and MI in response to multiple light and acoustic stimuli (zebrafish larvae): induced hyperactivity
Cc1ccc(-c2nc(N3CCOCC3)sc2C(=O)NCC2CCCO2)cc1 (stereo not drawn) [TT0011235] | attenuated | – | – | – | – | – | – | – | – | – | – | – | – | – | EGABA values ([2]; perfusion of 30 μM): shifted; GABAA-mediated currents (muscimol-activated and endogenous post-synaptic potentials) ([2]; perfusion of 30 μM): potentiated; effect on overall MI ([3]; at concentrations higher than 20 μM): inhibitory effect; concentration of most effective phenotypic reversal ([3]; tested at 2.5-80 μM): 20 µM; rescue of VU0240551-induced behaviors ([3]; tested at 2.5-80 μM): rescued
COc1cc(C)c(C(C)C)cc1S(=O)(=O)NCCN1CCOCC1 [TT0023831, 5-isopropyl-2-methoxy-4-methyl-N-(2-morpholinoethyl)benzene-sulfonamide] | did not | outperform both tiagabine and valproic acid | 3/8 | 0/4 | 2/4 | 2/4 | neither TT0023831 nor TT0042607 appeared to have an effect | reduced the firing rates | delayed spike initiation | without changing | without affecting | concentration-dependent inhibition | concentration-dependent inhibition | concentration-dependent inhibition | overall motor activity of the larvae ([4]; 80 μM, reduced the rescue score): reduced the overall motor activity; EC50 ([4]; Danio rerio, read-out: in vivo EC50): 5 µM; peak activity ([4]; concentration of peak effect, doses 2.5-320 uM, suppression of KCC2-inhibited phenotype in zebrafish): 20 µM; concentration of best phenotypic reversal ([4]; tested at 2.5-80 μM, high rescue scores): 20 µM and 40 µM; Rescued (6 Hz model) (mouse 6 Hz 44 mA model; 50 mg/kg): 0/8; Rescued (6 Hz model) (mouse 6 Hz 44 mA model; 200 mg/kg): 7/8; action potential threshold ([2]; 30 μM): raising; rheobase ([2]; 30 μM): increased
CCCOc1nn(CCC)cc1C(=O)Nc1ccc(C(F)(F)F)cc1 [TT0042607, 3-propoxy-1-propyl-N-(4-(trifluoromethyl)phen-yl)-1H-pyrazole-4-carboxamide] | attenuated | outperform both tiagabine and valproic acid | 1/4 | 0/4 | 0/4 | 2/4 | neither TT0023831 nor TT0042607 appeared to have an effect | reduced the firing rates | delayed spike initiation | reduced | reduced | – | – | – | effect on the overall MI ([4]; sub-micromolar or higher concentrations (tested 0.08-2.5 μM)): no effect; rescue of VU0463271-induced behaviors ([4]; tested at 0.08-2.5 μM, already at sub-micromolar concentrations): rescued; Rescued (6 Hz model) (mouse 6 Hz 44 mA model; 10 mg/kg): 0/4; Rescued (6 Hz model) (mouse 6 Hz 44 mA model; 30 mg/kg): 0/4; upstroke and repolarization ([2]; 30 μM): slowed
NC1=N[C@H](O)[C@H]2[C@H]3O[C@]4(O)O[C@@H]([C@@H](O)[C@@]2(N1)[C@@H]4O)[C@]3(O)CO [TTX, tetrodotoxin] | – | – | – | – | – | – | – | – | – | – | – | – | – | – | inhibition of Nav1.1 (Nav1.1): concentration-dependent inhibition; inhibition of Nav1.2 (Nav1.2): concentration-dependent inhibition; inhibition of Nav1.6 (Nav1.6): concentration-dependent inhibition
CCCCNc1ccc(C(=O)OCCN(C)C)cc1 [tetracaine] | – | – | – | – | – | – | – | – | – | – | – | concentration-dependent inhibition | concentration-dependent inhibition | concentration-dependent inhibition | –

From patent publication US20180161310A1, “COMPOUNDS AND METHODS FOR THE TREATMENT OF NEUROLOGICAL DISORDERS” (Teleos Therapeutics, LLC, priority 2016, published 2018)
